Consider twelve molecules from patent publication US20230091047A1 (priority 2019, published 2023).

Data set [1] is described as follows: in vitro. The following applies: human, HepG2 or HepG2.117 cells, ATPlite, mean value. In kind it is cell-based. The procedure, abridged:
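Luminescent ATP quantitation served as the viability endpoint following a 3- or 4-day incubation with test compounds.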
(In ATP-based viability assays light output follows the ATP content of the culture.)

Data set [2] relates to HBV (HepG2.117 cell line, inducibly HBV producing). Nature of the data set: Anti-HBV activity: intracellular HBV DNA by real-time PCR in HepG2.117 cells after 3 days of treatment. The data set is classed as cell-based, hepatitis B virus. The procedure, abridged:
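Inducible HBV-producing HepG2.117 line (Tet-off); 3-day exposure to serially diluted compound after induction; real-time PCR of intracellular viral DNA.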
For orientation: Real-time PCR tracks product formation cycle by cycle.

Where [3] appears, read: 3-days incubation (unmarked values).
[4] abbreviates: Hepatitis B virus, HepG2.117, 72 h, HepG2.117 cells, 3 days of treatment, intracellular HBV DNA by real-time PCR; mean value; read-out: EC50 (μM, mean value).
[5] abbreviates: 3-days incubation (not marked with *).
Where [6] appears, read: Hepatitis B virus, HepG2.117, 72 h, HepG2.117 cells, intracellular HBV DNA by real-time PCR, 3 days of treatment, mean value; read-out: EC50 (μM, mean value).

SMILES strings stand for the structures. Where two headings read alike, the source gives them in different places.

What is called CC50 is the concentration giving 50% cytotoxicity. Lower therefore signals greater toxicity to the cells. Usually EC50 stands for the concentration needed to bring the measured effect to its halfway point. With `CNC1CCN(c2ccc(-n3c(NC(C)C)nc4c(c3=O)CCN(C(=O)c3ccc(Cl)c(Cl)c3)C4)cc2)C1` (stereo not drawn) [Compound C180, 7-(3,4-dichlorobenzoyl)-3-{4-[3-(methylamino)pyrrolidin-1-yl]phenyl}-2-[(propan-2-yl)amino]-5,6,7,8-tetrahydropyrido[3,4-d]pyrimidin-4(3H)-one], half-maximal cytotoxicity in data set [1] (setting [3]) (CC50 at 3 days) was put at 5.6 µM. In addition, the EC50 in data set [2] (setting [4]) is 0.72 µM.

As to `CNS(=O)(=O)c1ccc(-n2c(NC(C)C)nc3c(c2=O)C[C@@H](C)N(C(=O)c2ccc(Cl)c(Cl)c2)C3)cc1` [Compound C339, 4-[(6R)-7-(3,4-dichlorobenzoyl)-6-methyl-4-oxo-2-[(propan-2-yl)amino]-5,6,7,8-tetrahydropyrido[3,4-d]pyrimidin-3(4H)-yl]-N-methylbenzene-1-sulfonamide], the CC50 at 3 days in data set [1] (setting [3]) was above 50 µM. Moreover, the EC50 in data set [2] (setting [4]) is 0.57 µM.

`CC(C)Nc1nc2c(c(=O)n1-c1ccc(S(C)(=O)=O)cc1)CCN(C(=O)c1ccn3nccc3c1)C2` [Compound C138, 3-[4-(methanesulfonyl)phenyl]-2-[(propan-2-yl)amino]-7-(pyrazolo[1,5-a]pyridine-5-carbonyl)-5,6,7,8-tetrahydropyrido[3,4-d]pyrimidin-4(3H)-one]: the CC50 at 3 days in data set [1] (setting [3]) is above 50 µM. In addition, the EC50 in data set [2] (setting [4]) was 5.98 µM.

Turning to `CNC(=O)c1ccc(-n2c(N[C@H](C)c3ccc(F)c(F)c3)nc3c(c2=O)C[C@@H](C)N(C(=O)c2ccc(Cl)c(Cl)c2)C3)cc1` (single isomer, unassigned) [Compound C417a], the CC50 at 3 days in data set [1] (setting [5]) turned out to be 41.8 µM. For the same molecule, the EC50 in data set [2] (setting [6]) worked out at 1.22 µM.

Molecule `CC(C)Nc1nc2c(c(=O)n1-c1ccc(S(C)(=O)=O)cc1)CCN(C(=O)c1ccn3cncc3c1)C2` [Compound C361] gave a CC50 at 3 days in data set [1] (setting [3]) above 50 µM. Besides, the EC50 in data set [2] (setting [4]) was above 50 µM.

In data set [1] (setting [3]), `O=C(c1ccc(Cl)c(Cl)c1)N1CCc2c(nc(NC(CO)CO)[nH]c2=O)C1` [Compound C98, 7-(3,4-dichlorobenzoyl)-2-[(1,3-dihydroxypropan-2-yl)amino]-5,6,7,8-tetrahydropyrido[3,4-d]pyrimidin-4(3H)-one] returned a CC50 at 3 days above 50 µM. For the same molecule, the EC50 in data set [2] (setting [4]) stood at 36.5 µM.

In the case of `C[C@@H]1Cc2c(nc(NCc3ccncn3)n(-c3ccc(S(C)(=O)=O)cc3)c2=O)CN1C(=O)c1ccc(Cl)c(Cl)c1` [Compound C150, (6R)-7-(3,4-dichlorobenzoyl)-3-[4-(methanesulfonyl)phenyl]-6-methyl-2-{[(pyrimidin-4-yl)methyl]amino}-5,6,7,8-tetrahydropyrido[3,4-d]pyrimidin-4(3H)-one], the CC50 at 3 days in data set [1] (setting [3]) was above 50 µM. Further, the EC50 in data set [2] (setting [4]) stood at 5.44 µM.

In turn, `Cc1noc(-c2ccc(-n3c(NC(C)C)nc4c(c3=O)C[C@@H](C)N(C(=O)c3ccc(Cl)c(Cl)c3)C4)cc2)n1` [Compound C371] had a CC50 at 3 days in data set [1] (setting [3]) above 50 µM. In addition, in data set [2] (setting [4]), the EC50 is 0.13 µM.

As to `COc1ccccc1-n1c(NCCO)nc2c(c1=O)CCN(C(=O)c1ccc(Cl)c(Cl)c1)C2` [Compound C37, 7-(3,4-dichlorobenzoyl)-2-[(2-hydroxyethyl)amino]-3-(2-methoxyphenyl)-5,6,7,8-tetrahydropyrido[3,4-d]pyrimidin-4(3H)-one], in data set [1] (setting [3]), the CC50 at 3 days is above 50 µM. The concentration giving a half-maximal response (EC50) in data set [2] (setting [4]) came out at 32.1 µM.

For `CNC(=O)c1ccc(-n2c(N[C@@H](C)c3ccccc3)nc3c(c2=O)C[C@@H](C)N(C(=O)c2ccc(Cl)c(Cl)c2)C3)cc1` [Compound C253, 4-[(6R)-7-(3,4-dichlorobenzoyl)-6-methyl-4-oxo-2-{[(1S)-1-phenylethyl]amino}-5,6,7,8-tetrahydropyrido[3,4-d]pyrimidin-3(4H)-yl]-N-methylbenzamide], the midpoint of cytotoxicity in data set [1] (setting [3]), the CC50 at 3 days, lay at 22.9 µM. The EC50 in data set [2] (setting [4]) is 0.1 µM.

Turning to `CNC(=O)c1ccc(-n2c(NC(C)C)nc3c(c2=O)C[C@@H](C)N(C(=O)c2ccc(C(F)F)c(Cl)c2)C3)cc1` [Compound C418], in data set [1] (setting [5]), the cytotoxic concentration (CC50) at 3 days is above 50 µM. Moreover, the EC50 in data set [2] (setting [6]) was determined as 0.08 µM.

On to `CNC(=O)c1ccc(-n2c(NC(C)C)nc3c(c2=O)C[C@@H](C)N(C(=O)c2cc(C)c(C)c(Br)c2)C3)cc1` [Compound C578], for which the midpoint of cytotoxicity in data set [1] (setting [5]), the CC50 at 3 days, lay at 33.2 µM. In addition, in data set [2] (setting [6]), the EC50 worked out at 0.11 µM.
